By pIC50 is commonly meant the negative decadic logarithm of the IC50, by convention in mol/L.

pIC50: −log10 of the molar value. Read-outs that look alike come from different tables or passages of the source.

Experimental findings from US11160808B2, “Compounds that enhance Atoh1 expression” (Massachusetts Eye & Ear Infirmary, priority 2008, dated 2021) are described below.

Data set [1] concerns Math1 enhancer and minimal promoter Luciferase reporter in HEK cells. As to the kind of experiment: Math1 Luciferase reporter assay in HEK cells. The data set is classed as cell-based, human. The source says: A human embryonic kidney (HEK) cell line stably expressing a Luciferase gene controlled by an Math1 enhancer and minimal promoter was used in a high-throughput screen (HTS) of 144,000 small molecules to identify compounds that increase Math1 expression (i.e., transcription and/or translation). Such compounds can be used to increase the conversion of stem cells, progenitor cells, and support cells to or towards a hair cell. Screens to identify such compounds are described by Li et al., (U.S. Publication No. 2005/0287127) and Li et al., (U.S. application Ser. No. 11/953,797).
HEK cells stably expressing the Math1 Luciferase reporter were plated onto 384 well plates and cultured overnight in medium containing 10% fetal calf serum (FCS). Activation of the Math1 enhancer was measured by the increase in luminescence on a plate reader following addition of a luciferase detection agent. The assay was optimized for cell number, time of incubation, volume of medium, cell lysis reagent and luciferase reagent. Luminescence levels were compared in cells with the Math1-luciferase construct with and without retinoic acid (1 μM), and/or a luciferase construct with and without the Math1 enhancer and minimal promoter region.
To improve assay sensitivity, and reduce the coefficient of variation (CV), a more sensitive luciferase reagent (BriteLite luciferase reporter assay reagent, Perkin Elmer) was used, and Triton-X-100 was added to the lysis reagent to ensure complete lysis of the cells. Following these changes a CV of 4.2% was recorded. These conditions were used for all high-throughput screens. The luminescence threshold for a compound to be positive was defined as a 2-fold increase above the control (e.g., cells exposed to DMSO).
Cells were seeded on 384 well plates and allowed to attach overnight at 37° C. with 5% CO2 in the absence of growth factors. Math1 activation was measured by the increase in luminescence on a plate reader following addition of a luciferase detection reagent. Luminescence was assessed at 24, 48, and 72 hours. These conditions were used to screen 144,000 compounds contained in the small molecule libraries at Harvard University's Laboratory for Drug Discovery in Neurodegeneration (LDDN).
HTS were performed using HEK-Math1 cells seeded in 384 well plates. One compound was added per well using pin transfer. The final concentration of each compound was […]. Cell were incubated in the presence of a compound for 48 hours at 37° C. with 5% CO2. Cell lysates then were collected and bioluminescence determined. Luminescence values were compared normalized against DMSO.
About 20000 compounds were screened per week in 50 plates of 384 well with the aid of robotic systems (Beckman Biomek FX). Compounds were screened at an average final concentration of 0.7 μM (in 0.04% DMSO) with each plate containing 16 wells of 1 μM retinoic acid, as a positive control, and 16 wells of 0.04% DMSO, as a vehicle control. Percent activation of luminescence in the test compounds was determined for cells treated with the compounds against cells treated with DMSO.
Ten compounds, randomly selected from the group of 110 compounds identified in Example 2, were further evaluated, as follows. HEK cells were plated on 96 well plates at a density of 100000 cells per well. One day after plating, 0.1, 1, and 5 μM of each positive compound was added per well in a 10% fetal bovine serum (FBS) DMEM solution. Cells were then lysed 48 hours after addition of the compound and Math1 expression was analyzed using a luciferase reporter assay, as described above, and real-time PCR.
The half maximal inhibitory concentration (IC50) and median lethal dose or Lethal Dose, 50% (LD50) were determined for each of the compounds identified in Example 2 using standard laboratory techniques. IC50 is a measure of the effectiveness of a compound in inhibiting biological or biochemical function. LD50 is the amount of a compound required to kill half the members of a tested population.
In general terms: In a reporter assay the amount or activity of a reporter protein is the signal.

Data set [2] in a line: LD50 (median lethal dose) determination. The data set is classed as cell-based. The source says:
IC50 is a measure of the effectiveness of a compound in inhibiting biological or biochemical function. LD50 is the amount of a compound required to kill half the members of a tested population.

[3] abbreviates: Homo sapiens, HEK293; read-out: IC50.
[4] abbreviates: Homo sapiens, HEK293; read-out: Maximum (Fold DMSO).

Take `Nc1nn(-c2ncnc3c2[nH]c2ccccc23)cc1-c1ccc(Cl)cc1` [CP-0000477, 4-(4-chlorophenyl)-1-(5H-pyrimido[5,4-b]indol-4-yl)-1H-pyrazol-3-amine]: in data set [1] (setting [3]), the pIC50 was 5.70. Also, the maximal fold induction in data set [1] (setting [4]) is 2. In addition, in data set [2], the “LD50” value was >30 µM.

Turning to `COc1ccc(-c2nc3ccc(Cl)cc3n2OCc2ccccc2Cl)cc1` [CP-0000550, 6-chloro-1-(2-chlorobenzyloxy)-2-(4-methoxyphenyl)-1H-benzo[d]imidazole], in data set [1] (setting [3]), the pIC50 is 7.52. The maximal fold induction in data set [1] (setting [4]) was found to be 2. In addition, in data set [2], the “LD50” value is >30 µM.

Consider `COc1ccc(-c2nc3ccc(Cl)cc3n2OCc2ccc(C)cc2)cc1` [CP-0000553, 6-chloro-2-(4-methoxyphenyl)-1-(4-methylbenzyloxy)-1H-benzo[d]imidazole], for which the pIC50 in data set [1] (setting [3]) is 8.00. For the same compound, the maximal fold induction in data set [1] (setting [4]) amounted to 2. The “LD50” value in data set [2] was >30 µM.

As for `COc1ccc(-c2nc3ccc(Cl)cc3n2OCc2cc(C)cc(C)c2)cc1` [CP-0000554, 6-chloro-1-(3,5-dimethylbenzyloxy)-2-(4-methoxyphenyl)-1H-benzo[d]imidazole], the pIC50 in data set [1] (setting [3]) was 6.40. In addition, the maximal fold induction in data set [1] (setting [4]) was found to be 2. Further, the “LD50” value in data set [2] was >30 µM.

As for `COc1ccc(COn2c(-c3ccc(OC)cc3)nc3ccc(Cl)cc32)cc1` [CP-0000557, 6-chloro-1-(4-methoxybenzyloxy)-2-(4-methoxyphenyl)-1H-benzo[d]imidazole], the pIC50 in data set [1] (setting [3]) was 7.70. For the same compound, the maximal fold induction in data set [1] (setting [4]) came to 2.6. The “LD50” value in data set [2] was found to be 30 µM.

For the compound `Cc1ccc(COn2c(-c3ccccc3)nc3ccc([N+](=O)[O-])cc32)cc1` [CP-0000571, 1-(4-methylbenzyloxy)-6-nitro-2-phenyl-1H-benzo[d]imidazole], in data set [1] (setting [3]), the pIC50 was 6.52. In addition, the maximal fold induction in data set [1] (setting [4]) amounted to 2. In data set [2], the “LD50” value was >30 µM.

For the compound `COc1cccc2c1OCC(C(=O)Nc1ccc(Cl)cc1Cl)=C2` [CP-0000928, N-(2,4-dichlorophenyl)-8-methoxy-2H-chromene-3-carboxamide], the pIC50 in data set [1] (setting [3]) was 6.52. The maximal fold induction in data set [1] (setting [4]) is 2. For the same compound, the “LD50” value in data set [2] was >10 µM.

As to `O=C(NNC(=S)Nc1ccc(F)cc1)c1ccccc1Cl` [CP-0005186, 2-(2-chlorobenzoyl)-N-(4-fluorophenyl)hydrazine-carbothioamide], the pIC50 in data set [1] (setting [3]) was 6.00. In addition, the maximal fold induction in data set [1] (setting [4]) turned out to be 1.8. For the same compound, the “LD50” value in data set [2] is >10 µM.

Consider `CNc1ccccc1C(=O)NCCc1ccccc1` [CP-0007991, 2-(methylamino)-N-phenethylbenzamide], for which, in data set [1] (setting [3]), the pIC50 is 6.22. In addition, in data set [1] (setting [4]), the maximal fold induction was 2. For the same compound, in data set [2], the “LD50” value is >10 µM.

`CN(C)c1ccc(C2NN=C(c3ccc(Cl)cc3)N2)cc1` (stereo not shown) [CP-0007994, 4-(3-(4-chlorophenyl)-4,5-dihydro-1H-1,2,4-triazol-5-yl)-N,N-dimethylaniline]: the pIC50 in data set [1] (setting [3]) is 6.00. The maximal fold induction in data set [1] (setting [4]) turned out to be 1.9. The “LD50” value in data set [2] is >10 µM.

With `CC(=O)c1sc(-c2ccc(C(C)(C)C)cc2)cc1N` [CP-0008545, 1-(3-amino-5-(4-tert-butylphenyl)thiophen-2-yl)ethanone], the pIC50 in data set [1] (setting [3]) was 6.40. The maximal fold induction in data set [1] (setting [4]) turned out to be 2.5. The “LD50” value in data set [2] is >10 µM.

For the compound `O=C(Cn1nnc2ccccc21)NC1Cc2ccccc2C1` [CP-0009883, 2-(1H-benzo[d][1,2,3]triazol-1-yl)-N-(2,3-dihydro-1H-inden-2-yl)acetamide], the pIC50 in data set [1] (setting [3]) was 5.60. Also, in data set [1] (setting [4]), the maximal fold induction amounted to 2.3. For the same compound, the “LD50” value in data set [2] is >10 µM.

Regarding `c1ccc2cc(-c3cc4ccccc4[nH]3)ccc2c1` [CP-0010539, 2-(naphthalen-2-yl)-1H-indole], the pIC50 in data set [1] (setting [3]) is 6.30. Besides, in data set [1] (setting [4]), the maximal fold induction stood at 2.1. Moreover, in data set [2], the “LD50” value was >10 µM.

In the case of `Cc1cccc(NC(=O)c2ccc3c(c2)OCCO3)n1` [CP-0029278, N-(6-methylpyridin-2-yl)-2,3-dihydrobenzo [b][1,4]dioxine-6-carboxamide], the pIC50 in data set [1] (setting [3]) is 6.30. Further, the maximal fold induction in data set [1] (setting [4]) was 1.9. Moreover, in data set [2], the “LD50” value was >10 µM.

As for `O=C(CSc1nc2ccccc2o1)Nc1ccccc1Cl` [CP-0029300, 2-(benzo[d]oxazol-2-ylthio)-N-(2-chlorophenyl)acetamide], the pIC50 in data set [1] (setting [3]) is 5.80. Further, the maximal fold induction in data set [1] (setting [4]) turned out to be 2. For the same compound, the “LD50” value in data set [2] was >10 µM.

Take `CC(C)COc1ccc(C2Nc3ccccc3C(=O)N2c2ccc3ccccc3c2)cc1` (stereo not shown) [CP-0034360, 2-(4-isobutoxyphenyl)-3-(naphthalen-2-yl)-2,3-dihydroquinazolin-4(1H)-one]: in data set [1] (setting [3]), the pIC50 is 6.00. Moreover, in data set [1] (setting [4]), the maximal fold induction was 2. Also, in data set [2], the “LD50” value was >10 µM.

Take `O=C(CSc1nc2ccccc2c(=O)n1NC(=O)c1ccccc1)c1ccc(F)cc1` [CP-0036187, N-(2-(2-(4-fluorophenyl)-2-oxoethylthio)-4-oxoquinazolin-3(4H)-yl)benzamide]: the pIC50 in data set [1] (setting [3]) was 6.00. For the same compound, the maximal fold induction in data set [1] (setting [4]) was 2.3. Also, in data set [2], the “LD50” value is >10 µM.

`COc1ccc(C2=NN3C(C2)c2cccc(OC)c2OC32CCCCC2)cc1` (stereo not shown) [CP-0039073, 7-methoxy-2-(4-methoxyphenyl)-1,10b-dihydrospiro[benzo[e]pyra-zolo[1,5-c][1,3]oxazine-5,1′-cyclohexane]]: the pIC50 in data set [1] (setting [3]) is 5.82. In data set [1] (setting [4]), the maximal fold induction is 2.4. Besides, in data set [2], the “LD50” value was >10 µM.

Turning to `Cc1ccc(-c2cnc3ccccc3n2)cc1C` [CP-0045061, 2-(3,4-dimethylphenyl) quinoxaline], in data set [1] (setting [3]), the pIC50 is 5.52. Besides, the maximal fold induction in data set [1] (setting [4]) came out at 1.9. Moreover, the “LD50” value in data set [2] is >10 µM.

With `Oc1ccc(-c2nc3ccccc3[nH]2)cc1` [CP-0047659, 4-(1H-benzo[d]imidazol-2-yl)phenol], the pIC50 in data set [1] (setting [3]) is 5.89. For the same compound, the maximal fold induction in data set [1] (setting [4]) was 2.3. Further, the “LD50” value in data set [2] is >10 µM.

`COc1ccc(C2C=C(c3ccc(Cl)cc3)Nc3nc4ccccc4n32)cc1` (stereo not shown) [CP-0050095, 2-(4-chlorophenyl)-4-(4-methoxyphenyl)-1,4-dihydrobenzo[4.5]imi-dazo[1,2-a]pyrimidine]: in data set [1] (Homo sapiens, HEK293), the pIC50 is 5.82. The maximal fold induction in data set [1] (Homo sapiens, HEK293, read-out: Maximum (Fold DMSO)) was 2.6. Besides, the “LD50” value in data set [2] was >10 µM.

On to `COCCNc1ncc(-c2ccc(C)cc2)cn1` [CP-0059547, N-(2-methoxyethyl)-5-p-tolylpyrimidin-2-amine], for which the pIC50 in data set [1] (setting [3]) is 6.00. The maximal fold induction in data set [1] (setting [4]) was determined as 2. Besides, the “LD50” value in data set [2] was >10 µM.

On to `c1ccc2sc(-c3cnc(N4CCOCC4)nc3)cc2c1` [CP-0059563, 4-(5-(benzo[b]thiophen-2-yl)pyrimidin-2-yl)morpholine], for which the pIC50 in data set [1] (setting [3]) was < 5.00. The maximal fold induction in data set [1] (setting [4]) came out at 1.9. Also, in data set [2], the “LD50” value was >10 µM.

Turning to `Fc1ccc(-c2cnc(N3CCOCC3)nc2)cc1` [CP-0059642, 4-(5-(4-fluorophenyl)pyrimidin-2-yl)morpholine], in data set [1] (setting [3]), the pIC50 was 6.00. Also, in data set [1] (setting [4]), the maximal fold induction came to 2.2. In addition, the “LD50” value in data set [2] was >10 µM.

On to `CC1=C(/C=C/C(C)=C/C=C/C(C)=C/C(=O)O)C(C)(C)CCC1` [retinoic acid, reference compound], for which the “increase in luciferase activity” value in data set [1] (1 μM, compared to non-treated cells) amounted to 1.8 fold.
